We go through 12 molecules from ChEMBL document CHEMBL1132910, “SAR of 4-hydroxypiperidine and hydroxyalkyl substituted heterocycles as novel p38 map kinase inhibitors” (Bioorg Med Chem Lett, 2000).

Data set [1] deals with Mitogen-activated protein kinase 14 (Mus musculus, UniProt P47811). The experiment in a line: Inhibition of murine p38 alpha MAP kinase.
The target in data set [2] is T1, Prostaglandin G/H synthase 1 (Ovis aries, UniProt P05979).
T1 sequence (P05979 whole entry): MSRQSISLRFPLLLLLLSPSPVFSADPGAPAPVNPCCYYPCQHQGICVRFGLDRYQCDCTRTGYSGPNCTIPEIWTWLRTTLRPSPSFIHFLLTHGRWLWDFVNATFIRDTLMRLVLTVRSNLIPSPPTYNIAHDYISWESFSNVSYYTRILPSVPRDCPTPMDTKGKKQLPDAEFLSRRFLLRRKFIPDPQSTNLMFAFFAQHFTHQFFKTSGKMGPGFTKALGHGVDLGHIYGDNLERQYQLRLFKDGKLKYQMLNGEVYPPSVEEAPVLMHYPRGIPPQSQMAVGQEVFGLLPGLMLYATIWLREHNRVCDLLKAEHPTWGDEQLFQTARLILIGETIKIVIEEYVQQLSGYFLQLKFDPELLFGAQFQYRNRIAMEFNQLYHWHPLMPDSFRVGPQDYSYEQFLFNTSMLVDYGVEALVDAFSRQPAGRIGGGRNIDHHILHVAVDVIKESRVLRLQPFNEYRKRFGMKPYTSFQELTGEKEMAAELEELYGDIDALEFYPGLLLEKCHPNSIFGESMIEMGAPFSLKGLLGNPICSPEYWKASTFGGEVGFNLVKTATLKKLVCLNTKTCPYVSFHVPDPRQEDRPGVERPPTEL
The experiment in a line: Inhibition of Prostaglandin G/H synthase 1, COX-1.

Data set [3] relates to Rattus norvegicus. The experiment in a line: Effect on adjuvant induced arthritis in rats at 25 mg/kg peroral dose twice daily over 10 days. In kind it is functional. To be noted: 240 h, route oral.
The target in data set [4] is Protein kinase C alpha type (Bos taurus, UniProt P04409). Description: Inhibition of PKCalpha kinase.
The target in data set [5] is T2, Dual specificity mitogen-activated protein kinase kinase 6 (Homo sapiens, UniProt P52564).
T2 sequence (P52564 whole entry): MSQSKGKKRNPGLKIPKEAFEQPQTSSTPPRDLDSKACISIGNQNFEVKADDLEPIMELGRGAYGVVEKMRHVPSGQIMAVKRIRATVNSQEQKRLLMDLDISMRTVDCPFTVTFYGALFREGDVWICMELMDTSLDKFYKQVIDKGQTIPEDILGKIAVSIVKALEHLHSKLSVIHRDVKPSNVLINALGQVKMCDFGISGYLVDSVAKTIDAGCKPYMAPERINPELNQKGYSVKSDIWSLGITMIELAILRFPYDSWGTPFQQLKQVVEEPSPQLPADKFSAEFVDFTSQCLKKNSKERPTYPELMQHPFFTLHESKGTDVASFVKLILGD
Description: Inhibition of MKK6b kinase.

In data set [6] the target is Mitogen-activated protein kinase 9 (Homo sapiens, UniProt P45984). The experiment in a line: Inhibition of JNK2 kinase.
Data set [7] concerns the target T3, Mitogen-activated protein kinase 13 (Homo sapiens, UniProt O15264).
T3 sequence (O15264 whole entry): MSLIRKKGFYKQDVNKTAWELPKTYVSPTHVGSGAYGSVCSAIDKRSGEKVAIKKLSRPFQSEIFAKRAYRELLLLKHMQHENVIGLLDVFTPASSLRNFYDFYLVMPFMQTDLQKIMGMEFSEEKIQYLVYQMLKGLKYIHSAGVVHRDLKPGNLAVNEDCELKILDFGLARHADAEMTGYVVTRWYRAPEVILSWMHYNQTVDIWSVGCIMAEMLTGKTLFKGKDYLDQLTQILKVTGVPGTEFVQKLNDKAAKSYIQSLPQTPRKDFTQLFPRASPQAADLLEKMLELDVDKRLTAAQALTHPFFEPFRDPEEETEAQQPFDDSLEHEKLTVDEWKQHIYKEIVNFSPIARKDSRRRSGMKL
Description: Inhibition of human p38 delta MAP kinase.

Data set [8] deals with Rattus norvegicus. The experiment in a line: Effect on collagen induced arthritis in rats at 25 mg/kg peroral dose twice daily over 10 days. In kind it is functional. To be noted: route oral.
The target in data set [9] is Mitogen-activated protein kinase 1 (Mus musculus, UniProt P63085). Description: Inhibition of ERK2 kinase.
The target in data set [10] is Epidermal growth factor receptor (Homo sapiens, UniProt P00533). The experiment in a line: Inhibition of EGFR kinase.
The target in data set [11] is Mitogen-activated protein kinase 8 (Homo sapiens, UniProt P45983). Description: Inhibition of JNK1 kinase.
Data set [12] is described as follows: Bioavailability. To be noted: eutheria, in vivo. It is filed as ADME, organism-based.
Data set [13] concerns Mus musculus. The experiment in a line: (§1) Inhibition of LPS-induced TNF-alpha release in mice at 20 mg/kg. It is filed as functional.
Data set [14] deals with Tyrosine-protein kinase ABL1 (Mus musculus, UniProt P00520). Description: Inhibition of c-abl kinase.
The target of data set [15] is Mitogen-activated protein kinase 11 (Homo sapiens, UniProt Q15759). The experiment in a line: Inhibition of human p38 beta MAP kinase.
Data set [16] in a line: Cmax value at a oral dose of […] mg/kg. In kind it is ADME, organism-based. To be noted: in vivo, 20 mg/kg.
Data set [17] concerns the target Proto-oncogene tyrosine-protein kinase Src (Gallus gallus, UniProt P00523). Description: Inhibition of c-src kinase.
Data set [18] concerns Mus musculus. The description is as §1. In kind it is functional, organism-based. Further details: dose 20 mg/kg.

The IC50 is the concentration at which inhibition is half-maximal. Lower therefore signals greater potency in that assay. The term inhibition in vivo denotes how much of the control response was suppressed. Broadly, the ED50 is the dose at which the effect has come halfway, by size or by number of responders. A low value points to an effect at a small dose. One may read the bioavailability as the share of a dose that reaches the circulation, judged against a reference dose that is usually intravenous. The low end stands for poor availability, the high end for good availability. By Cmax is commonly meant the peak of the concentration-time curve.

Sequence of Mitogen-activated protein kinase 14 (P47811 whole entry): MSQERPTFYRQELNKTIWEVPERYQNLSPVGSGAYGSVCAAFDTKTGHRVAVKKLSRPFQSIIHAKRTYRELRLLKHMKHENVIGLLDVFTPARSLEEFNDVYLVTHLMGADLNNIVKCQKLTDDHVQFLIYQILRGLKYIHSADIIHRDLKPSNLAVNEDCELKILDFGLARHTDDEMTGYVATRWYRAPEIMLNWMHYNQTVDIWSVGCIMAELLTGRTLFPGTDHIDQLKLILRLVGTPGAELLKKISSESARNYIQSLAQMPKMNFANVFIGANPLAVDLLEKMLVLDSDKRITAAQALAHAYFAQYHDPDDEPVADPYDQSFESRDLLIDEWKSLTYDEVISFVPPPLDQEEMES
Sequence of Mitogen-activated protein kinase 1 (P63085 whole entry): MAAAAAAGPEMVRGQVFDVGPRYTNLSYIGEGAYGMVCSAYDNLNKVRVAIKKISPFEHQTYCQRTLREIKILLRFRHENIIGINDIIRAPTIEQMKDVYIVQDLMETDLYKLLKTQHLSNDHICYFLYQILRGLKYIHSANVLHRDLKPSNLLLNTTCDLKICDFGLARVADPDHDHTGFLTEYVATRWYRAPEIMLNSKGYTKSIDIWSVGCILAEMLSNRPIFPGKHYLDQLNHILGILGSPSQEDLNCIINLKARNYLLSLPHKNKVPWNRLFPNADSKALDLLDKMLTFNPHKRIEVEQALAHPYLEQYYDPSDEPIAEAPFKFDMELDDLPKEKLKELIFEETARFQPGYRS
Sequence of Epidermal growth factor receptor (P00533 whole entry): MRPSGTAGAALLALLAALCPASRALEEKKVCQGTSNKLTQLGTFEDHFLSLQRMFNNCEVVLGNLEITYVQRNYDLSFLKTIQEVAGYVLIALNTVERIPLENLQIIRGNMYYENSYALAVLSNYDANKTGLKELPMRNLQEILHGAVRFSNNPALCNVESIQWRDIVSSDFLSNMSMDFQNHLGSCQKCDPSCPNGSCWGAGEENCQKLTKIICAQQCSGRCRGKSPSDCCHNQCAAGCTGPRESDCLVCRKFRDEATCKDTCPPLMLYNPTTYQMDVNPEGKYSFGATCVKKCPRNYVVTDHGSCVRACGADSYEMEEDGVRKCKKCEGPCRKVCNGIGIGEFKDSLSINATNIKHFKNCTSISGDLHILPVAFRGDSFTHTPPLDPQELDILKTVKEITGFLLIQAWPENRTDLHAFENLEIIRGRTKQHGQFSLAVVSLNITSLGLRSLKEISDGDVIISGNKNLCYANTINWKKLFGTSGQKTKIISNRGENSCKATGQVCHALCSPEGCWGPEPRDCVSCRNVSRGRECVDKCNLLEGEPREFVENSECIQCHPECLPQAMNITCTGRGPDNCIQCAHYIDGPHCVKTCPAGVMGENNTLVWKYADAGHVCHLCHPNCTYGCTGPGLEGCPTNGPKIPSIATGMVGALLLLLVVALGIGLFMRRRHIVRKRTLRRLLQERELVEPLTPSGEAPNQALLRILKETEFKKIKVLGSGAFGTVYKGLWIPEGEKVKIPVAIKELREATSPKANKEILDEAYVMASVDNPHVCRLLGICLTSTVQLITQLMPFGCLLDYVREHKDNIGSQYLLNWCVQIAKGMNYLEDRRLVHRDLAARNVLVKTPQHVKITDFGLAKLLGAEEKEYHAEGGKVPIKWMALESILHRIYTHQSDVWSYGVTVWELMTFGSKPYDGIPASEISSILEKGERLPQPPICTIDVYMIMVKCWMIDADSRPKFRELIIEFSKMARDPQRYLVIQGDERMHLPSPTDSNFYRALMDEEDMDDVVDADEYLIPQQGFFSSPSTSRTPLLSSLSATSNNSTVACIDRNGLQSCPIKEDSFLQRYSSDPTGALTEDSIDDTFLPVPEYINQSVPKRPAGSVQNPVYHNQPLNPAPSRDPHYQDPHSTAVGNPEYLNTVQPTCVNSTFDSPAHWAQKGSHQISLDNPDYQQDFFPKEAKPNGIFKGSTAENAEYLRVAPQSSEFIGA
Sequence of Mitogen-activated protein kinase 9 (P45984 whole entry): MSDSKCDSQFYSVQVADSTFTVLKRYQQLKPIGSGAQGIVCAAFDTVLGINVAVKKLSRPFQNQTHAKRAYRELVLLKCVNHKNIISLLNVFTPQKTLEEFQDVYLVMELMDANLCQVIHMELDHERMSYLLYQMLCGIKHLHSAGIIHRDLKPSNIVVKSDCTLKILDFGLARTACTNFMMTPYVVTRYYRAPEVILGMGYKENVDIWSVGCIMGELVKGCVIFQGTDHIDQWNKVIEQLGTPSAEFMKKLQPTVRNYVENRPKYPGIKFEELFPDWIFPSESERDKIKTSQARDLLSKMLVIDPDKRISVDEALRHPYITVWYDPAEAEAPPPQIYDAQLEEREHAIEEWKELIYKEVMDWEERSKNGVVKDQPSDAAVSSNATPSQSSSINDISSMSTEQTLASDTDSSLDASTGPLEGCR
Sequence of Tyrosine-protein kinase ABL1 (P00520 whole entry): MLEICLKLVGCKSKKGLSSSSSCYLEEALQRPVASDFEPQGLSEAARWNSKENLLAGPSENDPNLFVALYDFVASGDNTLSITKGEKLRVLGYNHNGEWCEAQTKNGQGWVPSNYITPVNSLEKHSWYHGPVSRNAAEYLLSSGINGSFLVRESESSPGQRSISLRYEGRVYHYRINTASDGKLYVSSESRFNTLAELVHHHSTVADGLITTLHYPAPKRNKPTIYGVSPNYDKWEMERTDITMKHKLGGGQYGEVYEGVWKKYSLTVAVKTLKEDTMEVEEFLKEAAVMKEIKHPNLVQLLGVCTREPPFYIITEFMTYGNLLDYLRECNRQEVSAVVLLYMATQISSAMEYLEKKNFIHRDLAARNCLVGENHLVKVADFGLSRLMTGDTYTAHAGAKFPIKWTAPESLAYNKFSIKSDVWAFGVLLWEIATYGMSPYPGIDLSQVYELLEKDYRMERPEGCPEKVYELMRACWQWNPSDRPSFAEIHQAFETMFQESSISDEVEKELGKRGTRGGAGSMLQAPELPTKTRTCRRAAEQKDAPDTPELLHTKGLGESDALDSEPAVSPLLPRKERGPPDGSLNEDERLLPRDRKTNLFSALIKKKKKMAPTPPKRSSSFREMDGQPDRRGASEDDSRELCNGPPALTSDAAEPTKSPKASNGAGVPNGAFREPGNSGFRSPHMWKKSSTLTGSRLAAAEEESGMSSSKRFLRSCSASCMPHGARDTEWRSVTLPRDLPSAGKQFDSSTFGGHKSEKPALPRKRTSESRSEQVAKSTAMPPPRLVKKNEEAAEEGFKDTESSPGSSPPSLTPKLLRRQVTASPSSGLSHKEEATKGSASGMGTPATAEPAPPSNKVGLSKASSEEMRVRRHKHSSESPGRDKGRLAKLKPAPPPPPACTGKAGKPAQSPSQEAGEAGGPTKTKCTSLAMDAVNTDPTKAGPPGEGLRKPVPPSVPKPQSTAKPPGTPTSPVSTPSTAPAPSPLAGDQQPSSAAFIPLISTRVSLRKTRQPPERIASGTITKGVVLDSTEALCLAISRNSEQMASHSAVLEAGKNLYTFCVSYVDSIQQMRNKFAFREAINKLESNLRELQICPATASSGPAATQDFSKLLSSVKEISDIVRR
Sequence of Mitogen-activated protein kinase 11 (Q15759 whole entry): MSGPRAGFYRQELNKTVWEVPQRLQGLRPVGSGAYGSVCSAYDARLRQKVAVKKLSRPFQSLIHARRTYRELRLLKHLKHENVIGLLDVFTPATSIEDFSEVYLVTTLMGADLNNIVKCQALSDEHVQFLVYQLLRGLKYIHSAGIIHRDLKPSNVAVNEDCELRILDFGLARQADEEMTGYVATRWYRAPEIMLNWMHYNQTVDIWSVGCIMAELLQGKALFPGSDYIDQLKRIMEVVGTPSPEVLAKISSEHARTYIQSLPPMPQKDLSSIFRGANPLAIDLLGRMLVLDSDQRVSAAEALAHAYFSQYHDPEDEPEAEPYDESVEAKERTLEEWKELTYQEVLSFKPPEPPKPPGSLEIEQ
Sequence of Mitogen-activated protein kinase 8 (P45983 whole entry): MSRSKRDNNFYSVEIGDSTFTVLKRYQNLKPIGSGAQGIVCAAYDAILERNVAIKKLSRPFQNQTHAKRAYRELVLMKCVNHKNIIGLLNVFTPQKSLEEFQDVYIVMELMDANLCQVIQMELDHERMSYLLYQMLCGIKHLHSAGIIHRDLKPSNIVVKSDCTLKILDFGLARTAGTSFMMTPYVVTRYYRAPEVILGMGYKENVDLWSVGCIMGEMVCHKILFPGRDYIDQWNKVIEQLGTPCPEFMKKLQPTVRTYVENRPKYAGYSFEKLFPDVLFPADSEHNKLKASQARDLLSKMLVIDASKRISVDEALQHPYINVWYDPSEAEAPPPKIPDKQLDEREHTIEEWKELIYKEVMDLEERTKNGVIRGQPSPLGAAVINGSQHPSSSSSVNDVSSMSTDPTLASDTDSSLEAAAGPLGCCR

Turning to `OC1(c2nc(-c3ccncc3)c(-c3ccc(F)cc3)[nH]2)CCC1`, the IC50 in data set [1] came out at 150 nM; in data set [2], 20000 nM.
For `CC(C)(O)c1nc(-c2ccncc2)c(-c2ccc(F)cc2)[nH]1` the same measures were 470 nM and 87000 nM.
As to `OC1(c2nc(-c3ccncc3)c(-c3ccc(F)cc3)[nH]2)CC1`, the IC50 was determined as 20 nM in [1] and 40000 nM in [2].
Turning to `CN1CCC(O)(c2nc(-c3ccc(F)cc3)c(-c3ccncc3)o2)CC1`, the IC50 was 350 nM in [1]; 51100 nM in [4]; > 100000 nM in data set [5]; 8090 nM in [6]; > 10000 nM in data set [7]; > 100000 nM in data set [2]. Further, the IC50 in [9] is > 10000 nM; in data set [10] it was 797 nM; in data set [11], > 10000 nM; in data set [14] it was 86800 nM; in [15], 2410 nM; in data set [17] it was 22700 nM. The IC50 in data set [18] stood at 180 nM. Besides, the inhibition in vivo at 25 mg/kg in [3] was 40%. For the same molecule, in data set [8], the ED50 came to 20 mg/kg/day. Also, the bioavailability in data set [12] came out at 65%. The molecule further gave an inhibition in vivo at 20 mg/kg in [13] of 50%. Besides, the peak level in data set [16] (Cmax) was 1960 nM.
As for `OC1(c2nc(-c3ccncc3)c(-c3ccc(F)cc3)[nH]2)CCCC1`, the IC50 in [1] came to 80 nM; in data set [2], 3000 nM.
For `OC1(c2nc(-c3ccncc3)c(-c3ccc(F)cc3)[nH]2)CCCCC1` the same measures were 120 nM and 6300 nM.
For `OC1(c2nc(-c3ccncc3)c(-c3ccc(F)cc3)[nH]2)CCCCCC1` the same measures were 76 nM and 200 nM.
For `CC(C)(C)c1nc(-c2ccncc2)c(-c2ccccc2)[nH]1` the same measures were 450 nM and 5000 nM.
The molecule `CN1CCC(O)(c2nc(-c3ccncc3)c(-c3ccc(F)cc3)o2)CC1` showed a 50% inhibitory concentration (IC50) in [1] of 2000 nM.
With `CN1CCC(O)(c2nc(-c3ccc(F)cc3)c(-c3ccncc3)s2)CC1`, the results for the IC50 in data set [1], in data set [2] and in [18] were 450 nM, 73000 nM and 145 nM, respectively. In [13], this molecule displayed an inhibition in vivo at 20 mg/kg of 0%.
As for `CN1CCC(O)(c2nc(-c3ccc(F)cc3)c(-c3ccncc3)[nH]2)CC1`, the IC50 in [1] was 90 nM; in data set [2], > 100000 nM; in data set [18] it was 15 nM. The inhibition in vivo at 25 mg/kg in data set [3] stood at 23%. Further, the bioavailability in [12] came out at 23%. The molecule also showed an inhibition in vivo at 20 mg/kg in [13] of 77%. Besides, the Cmax in [16] was found to be 400 nM.
With `CN1CCC(O)(c2cc(-c3ccncc3)c(-c3ccc(F)cc3)[nH]2)CC1`, the 50% inhibitory concentration (IC50) was 130 nM in data set [1], > 100000 nM in data set [2] and 125 nM in [18]. In [13], this molecule displayed an inhibition in vivo at 20 mg/kg of 18%.
